{"source": "patent US20060173046A1", "about": "“Hydroxypyridine cgrp receptor antagonists” (priority 2003, published 2006)", "origin": "cited, not measured here", "key": {"marmoset": {"tested_on": "marmoset", "settings": "electrical stimulation of the trigeminal ganglion"}, "rats": {"tested_on": "rats", "settings": "electrical stimulation of the dura mater, prior administration"}, "rat": {"tested_on": "rat", "settings": "trigeminal ganglion stimulation"}}, "note": "Ends that are not written are not given here.", "data": [{"molecule": "NCCCC[C@H](NC(=O)[C@@H](Cc1cc(Br)c(O)c(Br)c1)NC(=O)N1CCC(N2Cc3ccccc3NC2=O)CC1)C(=O)N1CCN(c2ccncc2)CC1", "note": "[BIBN4096BS]", "values": [{"measurement": "increase in facial blood flow", "setting": "marmoset", "value": "blocked"}]}, {"molecule": "CGRP(8-37): a peptide CGRP antagonist (VTHRLAGLLSRSGGVVKNNFVPTNVGSKAF; ends and bridges not checked; UniProt P06881 90-119, looked up, fragment)", "values": [{"measurement": "increase of the diameter of the middle meningeal artery", "setting": "rats", "value": "blocked"}, {"measurement": "increased facial blood flow", "setting": "rat", "value": "inhibited"}]}]}
